Reference: patent US12655116B2, “Substituted isophthalic acid diamides” (Bayer Aktiengesellschaft, priority 2020, dated 2026)

Assays:
ABUTH [1] = test: Pre-emergence herbicidal action against ABUTH; assay type: in vivo, Abutilon theophrasti; conditions: Abutilon theophrasti, 504 h; for pest or weed control at 80 g/ha: scored visually after 3 weeks vs untreated controls (100% = plants have died, 0% = like control plants); for pest or weed control at 320 g/ha: Dosage: 320 g/ha, scored visually after 3 weeks, 100% = plants have died, 0% = like control plants
Method in brief: (§1)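 Seeds sown in sandy loam, soil-covered; compound sprayed on soil surface pre-emergence. Application: WP/EC, 600–800 l/ha, 0.2% wetting agent. Readout: visual % damage at 3 weeks.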

ALOMY [2] = test: Pre-emergence herbicidal action against ALOMY; assay type: in vivo, Alopecurus myosuroides; conditions: Alopecurus myosuroides, 504 h, pre-emergence; for pest or weed control at 80 g/ha: scored visually after 3 weeks vs untreated controls (100% = plants have died, 0% = like control plants); for pest or weed control at 320 g/ha: scored visually after 3 weeks, 100% = plants have died, 0% = like control plants
Method in brief: as §1

AMARE = test: Pre-emergence herbicidal action against AMARE; assay type: in vivo, Amaranthus retroflexus; conditions: Amaranthus retroflexus, 504 h, 100% = plants have died, 0% = like control plants; for pest or weed control at 80 g/ha: scored visually after 3 weeks vs untreated controls; for pest or weed control at 320 g/ha: scored visually after 3 weeks
Method in brief: as §1

AVEFA [3] = test: Pre-emergence herbicidal action against AVEFA; assay type: in vivo, Avena fatua; conditions: Avena fatua, 504 h, pre-emergence; for pest or weed control at 320 g/ha: scored visually after 3 weeks, 100% = plants have died, 0% = like control plants
Method in brief: as §1

HORMU [4] = test: Pre-emergence herbicidal action against HORMU; assay type: in vivo, Hordeum murinum; conditions: Hordeum murinum, 504 h, pre-emergence
Method in brief: as §1

LOLRI = test: Pre-emergence herbicidal action against LOLRI; assay type: in vivo, Lolium rigidum; conditions: Lolium rigidum, 504 h, 320 g/ha
Method in brief: as §1

MATIN [5] = test: Pre-emergence herbicidal action against MATIN; assay type: in vivo, Matricaria inodora; conditions: Tripleurospermum inodorum, 504 h; for pest or weed control at 80 g/ha: dosage 80 g/ha; for pest or weed control at 320 g/ha: dosage 320 g/ha
Method in brief: as §1

SETVI [6] = test: Pre-emergence herbicidal action against SETVI; assay type: in vivo, Setaria viridis; conditions: Setaria viridis, 504 h; for pest or weed control at 80 g/ha: dosage 80 g/ha; for pest or weed control at 320 g/ha: dosage 320 g/ha
Method in brief: as §1

STEME [7] = test: Pre-emergence herbicidal action against STEME; assay type: in vivo, Stellaria media; conditions: Stellaria media, 504 h; for pest or weed control at 80 g/ha: dosage 80 g/ha; for pest or weed control at 320 g/ha: dosage 320 g/ha
Method in brief: as §1

VERPE [8] = test: Pre-emergence herbicidal action against VERPE; assay type: in vivo, Veronica persica; conditions: Veronica persica, 504 h; for pest or weed control at 320 g/ha: dosage 320 g/ha
Method in brief: as §1

ABUTH [9] = test: Post-emergence herbicidal action against ABUTH; assay type: in vivo, Abutilon theophrasti; conditions: Abutilon theophrasti, 504 h, visual assessment about 3 weeks after treatment vs untreated controls; for pest or weed control at 20 g/ha: dosage 20 g/ha; for pest or weed control at 80 g/ha: dosage 80 g/ha
Method in brief: (§2)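 Percent herbicidal action is rated by eye about 3 weeks after treatment against untreated controls, where 100% means dead plants and 0% means like controls. Plants in sandy loam are sprayed on green parts at the one-leaf stage with aqueous WP or EC preparations at 600 to 800 l/ha plus 0.2% wetting agent.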

ALOMY [10] = test: Post-emergence herbicidal action against ALOMY; assay type: in vivo, Alopecurus myosuroides; conditions: Alopecurus myosuroides, 504 h, visual assessment about 3 weeks after treatment vs untreated controls; for pest or weed control at 20 g/ha: dosage 20 g/ha; for pest or weed control at 80 g/ha: dosage 80 g/ha
Method in brief: as §2

AVEFA [11] = test: Post-emergence herbicidal action against AVEFA; assay type: in vivo, Avena fatua; conditions: Avena fatua, 504 h, visual assessment about 3 weeks after treatment, 100% = plants have died, 0% = like control plants
Method in brief: as §2

ECHCG = test: Post-emergence herbicidal action against ECHCG; assay type: in vivo, Echinochloa crus-galli; conditions: Echinochloa crus-galli, 504 h; for pest or weed control at 20 g/ha: dosage 20 g/ha; for pest or weed control at 80 g/ha: dosage 80 g/ha
Method in brief: as §2

HORMU [12] = test: Post-emergence herbicidal action against HORMU; assay type: in vivo, Hordeum murinum; conditions: Hordeum murinum, 504 h; for pest or weed control at 80 g/ha: dosage 80 g/ha
Method in brief: as §2

MATIN [13] = test: Post-emergence herbicidal action against MATIN; assay type: in vivo, Matricaria inodora; conditions: Tripleurospermum inodorum, 504 h; for pest or weed control at 20 g/ha: dosage 20 g/ha; for pest or weed control at 80 g/ha: dosage 80 g/ha
Method in brief: as §2

PHBPU = test: Post-emergence herbicidal action against PHBPU; assay type: in vivo, Pharbitis purpurea; conditions: Ipomoea purpurea, 504 h, dosage 80 g/ha
Method in brief: as §2

POLCO [14] = test: Post-emergence herbicidal action against POLCO; assay type: in vivo, Polygonum convolvulus; conditions: Fallopia convolvulus, 504 h; for pest or weed control at 80 g/ha: dosage 80 g/ha
Method in brief: as §2

SETVI [15] = test: Post-emergence herbicidal action against SETVI; assay type: in vivo, Setaria viridis; conditions: Setaria viridis, 504 h, dosage 80 g/ha
Method in brief: as §2

STEME [16] = test: Post-emergence herbicidal action against STEME; assay type: in vivo, Stellaria media; conditions: Stellaria media, 504 h
Method in brief: as §2

VERPE [17] = test: Post-emergence herbicidal action against VERPE; assay type: in vivo, Veronica persica; conditions: Veronica persica, 504 h
Method in brief: as §2

VIOTR = test: Post-emergence herbicidal action against VIOTR; assay type: in vivo, Viola tricolor; conditions: Viola tricolor, 504 h, 80 g/ha
Method in brief: as §2

POLCO [18] = test: Pre-emergence herbicidal action against POLCO; assay type: in vivo, Polygonum convolvulus; conditions: Fallopia convolvulus, 504 h, dosage 320 g/ha
Method in brief: as §1

Structure (SMILES) | pest or weed control at 80 g/ha (ABUTH [1]) | pest or weed control at 320 g/ha (ABUTH [1]) | pest or weed control at 80 g/ha (ALOMY [2]) | pest or weed control at 320 g/ha (ALOMY [2]) | pest or weed control at 80 g/ha (AMARE) | pest or weed control at 320 g/ha (AMARE) | pest or weed control at 80 g/ha (AVEFA [3]) | pest or weed control at 320 g/ha (AVEFA [3]) | pest or weed control at 80 g/ha (HORMU [4]) | pest or weed control at 320 g/ha (HORMU [4]) | pest or weed control at 320 g/ha (LOLRI) | pest or weed control at 80 g/ha (MATIN [5]) | pest or weed control at 320 g/ha (MATIN [5]) | pest or weed control at 80 g/ha (SETVI [6]) | pest or weed control at 320 g/ha (SETVI [6]) | pest or weed control at 80 g/ha (STEME [7]) | pest or weed control at 320 g/ha (STEME [7]) | pest or weed control at 320 g/ha (VERPE [8]) | pest or weed control at 20 g/ha (ABUTH [9]) | pest or weed control at 80 g/ha (ABUTH [9]) | further results
CNC(=O)c1c(C(F)(F)F)ccc(C(=O)Nc2nnnn2C)c1SC [Example 1-81] | 100% | 100% | 80% | 100% | 100% | 100% | 90% | 100% | 80% | 100% | 80% | 100% | 100% | 100% | 100% | 100% | 100% | 100% | 80% | 90% | pest or weed control at 20 g/ha (ALOMY [10]): 80%; pest or weed control at 80 g/ha (ALOMY [10]): 90%; pest or weed control at 80 g/ha (AVEFA [11]): 90%; pest or weed control at 20 g/ha (ECHCG): 80%; pest or weed control at 80 g/ha (ECHCG): 90%; pest or weed control at 80 g/ha (HORMU [12]): 80%; pest or weed control at 20 g/ha (MATIN [13]): 80%; pest or weed control at 80 g/ha (MATIN [13]): 100%; pest or weed control at 80 g/ha (PHBPU): 80%; pest or weed control at 80 g/ha (POLCO [14]): 90%; pest or weed control at 80 g/ha (SETVI [15]): 90%; pest or weed control at 20 g/ha (STEME [16]): 90%; pest or weed control at 80 g/ha (STEME [16]): 90%; pest or weed control at 20 g/ha (VERPE [17]): 80%; pest or weed control at 80 g/ha (VERPE [17]): 90%; pest or weed control at 80 g/ha (VIOTR): 80%
CCNC(=O)c1c(C(F)F)ccc(C(=O)Nc2nnnn2CC)c1Cl [Example 2-148] | 100% | 100% | 90% | 100% | 100% | 100% | 100% | 100% | 90% | 100% | 90% | 100% | 100% | 100% | 100% | 90% | 100% | 100% | 90% | 90% | pest or weed control at 320 g/ha (POLCO [18]): 100%; pest or weed control at 80 g/ha (VERPE [8]; dosage 80 g/ha): 80%; pest or weed control at 20 g/ha (ALOMY [10]): 80%; pest or weed control at 80 g/ha (ALOMY [10]): 90%; pest or weed control at 20 g/ha (AVEFA [11]; 20 g/ha): 90%; pest or weed control at 80 g/ha (AVEFA [11]): 90%; pest or weed control at 20 g/ha (ECHCG): 80%; pest or weed control at 80 g/ha (ECHCG): 90%; pest or weed control at 20 g/ha (HORMU [12]; dosage 20 g/ha): 80%; pest or weed control at 80 g/ha (HORMU [12]): 90%; pest or weed control at 20 g/ha (MATIN [13]): 90%; pest or weed control at 80 g/ha (MATIN [13]): 90%; pest or weed control at 20 g/ha (POLCO [14]; dosage 20 g/ha): 90%; pest or weed control at 80 g/ha (POLCO [14]): 90%; pest or weed control at 80 g/ha (SETVI [15]): 80%; pest or weed control at 20 g/ha (STEME [16]): 80%; pest or weed control at 80 g/ha (STEME [16]): 80%; pest or weed control at 20 g/ha (VERPE [17]): 80%; pest or weed control at 80 g/ha (VERPE [17]): 90%; pest or weed control at 80 g/ha (VIOTR): 80%
